Results on one molecule are retold here after patent US20090269403A1, “ORAL CONTRACEPTIVE DOSAGE FORMS AND METHODS OF MAKING SUCH DOSAGE FORMS” (priority 2008, published 2009).

SMILES strings stand for the structures.

For data set [1] the following is noted: water at various pH values; cited from earlier work.
Data set [2] can be described thus: Drug release from enteric-coated drospirenone/ethinylestradiol tablets (USP Type II paddle dissolution). Format: physicochemical. Particulars: Example 19 enteric-coated tablets, second test run, 75 rpm, 37° C. The method, then:
The rate at which the tablets release the drospirenone and ethinylestradiol was determined. Each tablet was placed in 0.1 N HCl and stirred for 2 hours. After this time, the pH of each of the mixtures containing the tablets was adjusted to pH 6.8 with phosphate buffer and stirred for 4 hours using a USP Type II paddle apparatus at 75 rpm and 37° C. A second test run gave the results listed below in Table 12. A graph of the drug release profiles for the second test run is depicted in FIG. 4.

The conditions of data set [3]: acidic conditions (such as encountered in the gastric environment); cited from earlier work.

Regarding `C[C@]12CCC(=O)C=C1[C@@H]1C[C@@H]1[C@H]1[C@@H]3[C@@H]4C[C@@H]4[C@@]4(CCC(=O)O4)[C@@]3(C)CC[C@@H]12` [Drospirenone, 6β,7β,15β, 16β-dimethylene-3-oxo-17a-pregn-4-ene-21,17-carbolactone], the solubility in water result in data set [1] was “only sparingly soluble in water”. The “Average % Drug Release (n = 6), 5 min” value in data set [2] (5 min, in 0.1 N HCl) is 0.0%. Further, in data set [2] (120 min, end of 2 hours in 0.1 N HCl), the “Average % Drug Release (n = 6), 120 min” value is 0.0%. Besides, the “Average % Drug Release (n = 6), 130 min” value in data set [2] (130 min, 2 hours 0.1 N HCl, then pH 6.8 phosphate buffer) amounted to 29.1%. In addition, the “Average % Drug Release (n = 6), 140 min” value in data set [2] (140 min, 2 hours 0.1 N HCl, then pH 6.8 phosphate buffer) is 108.4%. In addition, the “Average % Drug Release (n = 6), 150 min” value in data set [2] (150 min, 2 hours 0.1 N HCl, then pH 6.8 phosphate buffer) is 105.4%. For the same molecule, the “Average % Drug Release (n = 6), 165 min” value in data set [2] (165 min, 2 hours 0.1 N HCl, then pH 6.8 phosphate buffer) was 105.2%. Further, the “Average % Drug Release (n = 6), 180 min” value in data set [2] (180 min, 2 hours 0.1 N HCl, then pH 6.8 phosphate buffer) came out at 105.0%. Further, the “Average % Drug Release (n = 6), 240 min” value in data set [2] (240 min, 2 hours 0.1 N HCl, then pH 6.8 phosphate buffer) is 103.9%. In addition, the “Average % Drug Release (n = 6), 300 min” value in data set [2] (300 min, 2 hours 0.1 N HCl, then pH 6.8 phosphate buffer) was found to be 102.5%. Besides, in data set [3], the “stability under acidic conditions” value was “undergoes isomerization to a form that is inactive”.
